Experimental data: patent US8247532B2, “Deuterated hepatitis C protease inhibitors” (Vertex Pharmaceuticals Incorporated, priority 2006, dated 2012)

Assays:
[1] = type: in vitro ADME; conditions: human
Experimental: (§1) The epimerization rate was measured according to the following assay. Specifically, 100 μL medium (buffer, rat plasma, dog plasma, or human plasma) was added into a 96-well deep plate. To the plasma was then added 10 μL acetonitrile solution containing a test compound (1S,3aR,6aS)-2-((S)-2-((S)-2-cyclohexyl-2-(pyrazine-2-carboxamido)acetamido)-3,3-dimethylbutanoyl)-N—((S)-1-(cyclopropylamino)-1,2-dioxo-3-deutero-hexan-3-yl)octahydrocyclopenta[c]pyrrole-1-carboxamide (at 1 uM or 10 uM) and 1200 μL ethyl acetate into the 96 deep-well plate (2 mL) by using a TomTec liquid handling workstation (Hamden, Conn., USA). The plate was then covered tightly and shaken with a vortex for 20 minutes before it was centrifuged at 3000 rpm for 10 minutes. After centrifuge, 900 μL of the supernatant was transferred to a new V-shape 96 deep-well plate using TomTec, and then dried under nitrogen gas (flow rate of 60 L/min) at 25° C. for about 30 minutes. The residue was reconstituted with 100 μL ethyl acetate, and the solution was again transferred into the glass inserts in the 96-well plate. 20 uL of the reconstituted solution was injected into LC-MS/MS to determine the amount of the epimers. The LC-MS/MS spectrometer used a ChiralPak AD Column (4.6×150 mm, 10 μm), a mixture of isopropanol and n-heptane (10:90, 50:50, or 90:10) as the mobile phase, and isopropanol as the washing solvent. […]

[2] = Epimerization rate assay in buffer; type: physicochemical; conditions: 1 uM and 10 uM
Experimental: as §1

time course (shape) of epimerization [1]: linear rate for 180 minutes
epimerization rate compared with non-deuterated form [2]: slower epimerization rate
Structure (SMILES): [2H][C@@](CCC)(NC(=O)[C@@H]1[C@H]2CCC[C@H]2CN1C(=O)[C@@H](NC(=O)[C@@H](NC(=O)c1cnccn1)C1CCCCC1)C(C)(C)C)C(=O)C(=O)NC1CC1 [deuterated compound, (1S,3aR,6aS)-2-((S)-2-((S)-2-cyclohexyl-2-(pyrazine-2-carboxamido)acetamido)-3,3-dimethylbutanoyl)-N—((S)-1-(cyclopropylamino)-1,2-dioxo-3-deutero-hexan-3-yl)octahydrocyclopenta[c]pyrrole-1-carboxamide]
